Reference: patent US8192962B2, “Processes for detecting toxic substances” (Daikin Industries, Ltd., priority 2001, dated 2012)

Test system: Genes belonging to other category
Assay: DNA chip mRNA expression in yeast, genes belonging to other category (Table 9)
Format: cell-based, Saccharomyces cerevisiae S288C
Summary of the method: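 Chemical exposure: 2 h, log-phase S. cerevisiae S288C, YPD, 25° C., dose set to inhibit growth without death. Profiling: mRNA labeled by reverse transcription with Cy3- or Cy5-dUTP, hybridized to whole-genome array. Output: fluorescence ratio against untreated culture.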

Measured: The level of expressed mRNA in the presence of chemical substance/The level of expressed mRNA in the absence of chemical substance

Na2As [(1)]
0.5: yeast gene YKL165C
2.1: yeast gene YNL093W
0.8: yeast gene YKL039W | yeast gene YOR117W | yeast gene YOR259C | yeast gene YPR108W
1.3: yeast gene YKL193C | yeast gene YLR136C | yeast gene YNR010W
1.1: yeast gene YLR362W | yeast gene YMR226C | yeast gene YNL006W | yeast gene YOR185C | yeast gene YPL109C
1.8: yeast gene YOR036W
0.6: yeast gene YMR276W | yeast gene YOR124C
1.0: yeast gene YLR356W | yeast gene YMR094W | yeast gene YNL333W | yeast gene YOR157C | yeast gene YOR181W | yeast gene YOR198C | yeast gene YOR261C
5.5: yeast gene YLR327C
0.7: yeast gene YLR429W | yeast gene YMR219W | yeast gene YMR275C | yeast gene YNL007C | yeast gene YOR355W | yeast gene YPL154C | yeast gene YPR103W
1.7: yeast gene YLR178C
1.9: yeast gene YMR104C
1.2: yeast gene YKL008C | yeast gene YKL041W | yeast gene YLR120C | yeast gene YPL089C
1.5: yeast gene YLR250W | yeast gene YNR069C | yeast gene YPL149W
0.9: yeast gene YKL139W | yeast gene YMR004W | yeast gene YOL013C | yeast gene YOL164W | yeast gene YOR132W | yeast gene YOR288C | yeast gene YOR383C
1.4: yeast gene YKL013C | yeast gene YKL096W
